Active and inactive are the calls of the source. No cut-off for these calls is given here.
Key:
Influenza A virus [1] = assay: Antiviral activity against influenza A H1N1 infected in MDCK cells assessed as reduction of viral replication; format: functional, organism-based
Human respirovirus 3 = assay: Antiviral activity against Human parainfluenzae virus 3 infected in african green monkey Vero cells assessed as reduction of viral replication; format: functional, organism-based; conditions: for EC50: Human respirovirus 3, Vero
[2] = tested on: Vesicular stomatitis virus; assay: Antiviral activity against Vesicular stomatitis virus infected in human HEL cells assessed as reduction of viral replication; format: functional, organism-based
[3] = tested on: Human immunodeficiency virus 2; assay: Antiviral activity against HIV2 infected in human CEM cells assessed as reduction of viral replication; format: functional, organism-based; conditions: CCRF-CEM
[4] = Cytotoxicity against african green monkey Vero cells assessed as concentration required to cause microscopically alternation of cellular morphology; format: cell-based; conditions: chlorocebus sabaeus
[5] = Selectivity index, ratio of CC50 for human HFF cells to EC50 for Varicella-zoster virus; format: toxicity, cell-based; conditions: read-out: Ratio CC50/EC50
Yellow fever virus = assay: Antiviral activity against Yellow fever virus infected in african green monkey Vero cells assessed as reduction of viral replication; format: functional, organism-based
[6] = Cytotoxicity against MDCK cells assessed as reduction of cell viability; format: cell-based, Canis lupus familiaris; conditions: dog
unidentified adenovirus = assay: Antiviral activity against Adenovirus infected in human A549 cells assessed as reduction of viral replication; format: functional, organism-based
Influenza A virus [7] = assay: Antiviral activity against influenza A H3N2 infected in MDCK cells assessed as reduction of viral replication; format: functional, organism-based
Coxsackievirus B4 = assay: Antiviral activity against Human coxsackievirus B4 infected in african green monkey Vero cells assessed as reduction of viral replication; format: functional, organism-based
[8] = Selectivity index, ratio of CC50 for MDCK cells to EC50 for influenza B virus; format: toxicity, cell-based; conditions: dog, read-out: Ratio CC50/EC50
Influenza B virus = assay: Antiviral activity against influenza B virus infected in MDCK cells assessed as reduction of viral replication; format: functional, organism-based
Human gammaherpesvirus 4 = assay: Antiviral activity against Epstein-Barr virus infected in human HFF cells assessed as reduction of viral replication; format: functional, organism-based
West Nile virus = assay: Antiviral activity against West Nile virus infected in african green monkey Vero cells assessed as reduction of viral replication; format: functional, organism-based
[9] = tested on: Human immunodeficiency virus 1; assay: Antiviral activity against HIV1 infected in human CEM cells assessed as reduction of viral replication; format: functional, organism-based; conditions: CCRF-CEM
Cowpox virus = assay: Antiviral activity against Cowpox virus infected in human HFF cells assessed as reduction of viral replication; format: functional, organism-based
[10] = Selectivity index, ratio of CC50 for human HFF cells to EC50 for human cytomegalovirus; format: toxicity, cell-based; conditions: read-out: Ratio CC50/EC50
[11] = Selectivity index, ratio of CC50 for human HepG2.215 cells to EC50 for Hepatitis B virus; format: toxicity; conditions: read-out: Ratio CC50/EC50
Human alphaherpesvirus 1 = assay: Antiviral activity against HSV1 infected in human HEL cells assessed as reduction of viral replication; format: functional, organism-based
Human alphaherpesvirus 2 = assay: Antiviral activity against HSV2 infected in human HEL cells assessed as reduction of viral replication; format: functional, organism-based
Enterovirus = assay: Antiviral activity against Rhinovirus infected in human HeLa Ohio1 cells assessed as reduction of viral replication; format: functional, organism-based
[12] = Cytotoxicity against human HFF cells assessed as reduction of cell viability; format: cell-based
[13] = Cytotoxicity against human HepG2.215 cells assessed as reduction of cell viability; format: cell-based, HepG2 2.2.15
Cytomegalovirus = assay: Antiviral activity against human cytomegalovirus infected in human HFF cells assessed as reduction of viral replication; format: functional, organism-based; conditions: for EC50: Human betaherpesvirus 5, HFF
Punta Toro virus = assay: Antiviral activity against Punta Toro virus infected in african green monkey Vero cells assessed as reduction of viral replication; format: functional, organism-based
Tacaribe virus = assay: Antiviral activity against Tacaribe virus infected in african green monkey Vero 76 cells assessed as reduction of viral replication; format: functional, organism-based; conditions: Mammarenavirus tacaribeense
[14] = tested on: Respiratory syncytial virus; assay: Antiviral activity against Respiratory syncytial virus infected in monkey MA104 cells assessed as reduction of viral replication; format: functional, organism-based
Hepatitis B virus = assay: Antiviral activity against Hepatitis B virus infected in human HepG 2.215 cells assessed as reduction of viral replication; format: functional, organism-based; conditions: for EC50: HepG2.2.15
[15] = tested on: Mammalian orthoreovirus 1; assay: Antiviral activity against Reovirus 1 infected in african green monkey Vero cells assessed as reduction of viral replication; format: functional, organism-based; conditions: for EC50: Mammalian orthoreovirus 1, Vero
Feline coronavirus = assay: Antiviral activity against Feline coronavirus infected in cat CRFK cells assessed as reduction of viral replication; format: functional, organism-based
[16] = Cytotoxicity against african green monkey CV1 cells assessed as reduction of cell viability; format: cell-based, CV-1; conditions: chlorocebus aethiops
Dengue virus = assay: Antiviral activity against Dengue virus infected in african green monkey Vero cells assessed as reduction of viral replication; format: functional, organism-based
Measles morbillivirus = assay: Antiviral activity against Measles virus infected in african green monkey CV1 cells assessed as reduction of viral replication; format: functional, organism-based; conditions: CV-1
Human alphaherpesvirus 3 = assay: Antiviral activity against Varicella-zoster virus infected in human HFF cells assessed as reduction of viral replication; format: functional, organism-based; conditions: for EC50: Human alphaherpesvirus 3, HFF
Sindbis virus = assay: Antiviral activity against Sindbis virus infected in african green monkey Vero cells assessed as reduction of viral replication; format: functional, organism-based
Rift Valley fever virus = assay: Antiviral activity against Rift Valley fever virus infected in african green monkey Vero 76 cells assessed as reduction of viral replication; format: functional, organism-based
Vaccinia virus = assay: Antiviral activity against Vaccinia virus infected in human HEL cells assessed as reduction of viral replication; format: functional, organism-based; conditions: Orthopoxvirus vaccinia
[17] = Cytotoxicity against human HEL cells assessed as concentration required to cause microscopically alternation of cellular morphology; format: cell-based
Influenza A virus [18] = assay: Antiviral activity against influenza A virus H5N1 infected in MDCK cells assessed as reduction of viral replication; format: functional, organism-based
[19] = Selectivity index, ratio of CC50 for MDCK cells to EC50 for influenza A virus H5N1; format: toxicity, cell-based; conditions: dog, read-out: Ratio CC50/EC50
[20] = Selectivity index, ratio of CC50 for african green monkey CV1 cells to EC50 for Measles virus; format: toxicity, cell-based, CV-1; conditions: read-out: Ratio CC50/EC50

Nc1ncc(Br)c2c1ncn2[C@@H]1C[C@H](O)[C@@H](O)[C@H]1O
Activity (Influenza A virus [1]): inactive
EC50 (Human respirovirus 3): 8 µM
EC50 [2]: > 200 µM
Activity [3]: inactive
MCC [4]: > 8 µM
selectivity ratio [5]: > 2630
Activity (Yellow fever virus): inactive
CC50 [6]: > 273 µM
Activity (unidentified adenovirus): inactive
Activity (Influenza A virus [7]): inactive
Activity (Coxsackievirus B4): inactive
selectivity ratio [8]: > 100
EC50 (Influenza B virus): 27 µM
Activity (Human gammaherpesvirus 4): inactive
Activity (West Nile virus): inactive
Activity [9]: inactive
Activity (Cowpox virus): inactive
selectivity ratio [10]: > 175
selectivity ratio [11]: > 454
Activity (Human alphaherpesvirus 1): inactive
Activity (Human alphaherpesvirus 2): inactive
Activity (Enterovirus): inactive
CC50 [12]: > 300 µM
CC50 [13]: > 10 µM
EC50 (Cytomegalovirus): 1.7 µM
EC50 (Punta Toro virus): > 8 µM
Activity (Tacaribe virus): inactive
Activity [14]: inactive
EC50 (Hepatitis B virus): 0.022 µM
EC50 [15]: 1.6 µM
Activity (Feline coronavirus): inactive
CC50 [16]: > 273 µM
Activity (Dengue virus): inactive
EC50 (Measles morbillivirus): > 273 µM
EC50 (Human alphaherpesvirus 3): 0.11 µM
Activity (Sindbis virus): inactive
Activity (Rift Valley fever virus): inactive
EC50 (Vaccinia virus): 24 µM
MCC [17]: > 200 µM

Cc1cnc(N)c2ncn([C@@H]3C[C@H](O)[C@@H](O)[C@H]3O)c12
Activity (Influenza A virus [1]): inactive
Activity (Human respirovirus 3): inactive
Activity [2]: inactive
Activity [3]: inactive
Activity (Yellow fever virus): inactive
Activity (unidentified adenovirus): inactive
Activity (Influenza A virus [7]): inactive
Activity (Coxsackievirus B4): inactive
Activity (Influenza B virus): inactive
Activity (Human gammaherpesvirus 4): inactive
Activity (West Nile virus): inactive
Activity [9]: inactive
Activity (Cowpox virus): inactive
Activity (Human alphaherpesvirus 1): inactive
Activity (Human alphaherpesvirus 2): inactive
Activity (Enterovirus): inactive
Activity (Cytomegalovirus): inactive
Activity (Punta Toro virus): inactive
Activity (Tacaribe virus): inactive
Activity [14]: inactive
Activity (Hepatitis B virus): inactive
Activity [15]: inactive
Activity (Feline coronavirus): inactive
Activity (Dengue virus): inactive
Activity (Influenza A virus [18]): inactive
Activity (Measles morbillivirus): inactive
Activity (Human alphaherpesvirus 3): inactive
Activity (Sindbis virus): inactive
Activity (Rift Valley fever virus): inactive
Activity (Vaccinia virus): inactive

Nc1ncc(I)c2c1ncn2[C@@H]1C[C@H](O)[C@@H](O)[C@H]1O
Activity (Influenza A virus [1]): inactive
EC50 (Human respirovirus 3): 20 µM
EC50 [2]: 4 µM
Activity [3]: inactive
MCC [4]: 100 µM
selectivity ratio [5]: < 3.4
Activity (Yellow fever virus): inactive
CC50 [6]: > 242 µM
Activity (unidentified adenovirus): inactive
selectivity ratio [19]: > 6
Activity (Influenza A virus [7]): inactive
Activity (Coxsackievirus B4): inactive
selectivity ratio [8]: > 111
EC50 (Influenza B virus): 2.2 µM
Activity (Human gammaherpesvirus 4): inactive
Activity (West Nile virus): inactive
Activity [9]: inactive
Activity (Cowpox virus): inactive
selectivity ratio [10]: 182
selectivity ratio [11]: > 370
Activity (Human alphaherpesvirus 1): inactive
Activity (Human alphaherpesvirus 2): inactive
Activity (Enterovirus): inactive
CC50 [12]: 201 µM
CC50 [13]: > 300 µM
EC50 (Cytomegalovirus): 1.2 µM
EC50 (Punta Toro virus): > 20 µM
Activity (Tacaribe virus): inactive
Activity [14]: inactive
EC50 (Hepatitis B virus): 0.808 µM
EC50 [15]: 4 µM
Activity (Feline coronavirus): inactive
CC50 [16]: 67 µM
Activity (Dengue virus): inactive
EC50 (Influenza A virus [18]): 44 µM
EC50 (Measles morbillivirus): 2.9 µM
EC50 (Human alphaherpesvirus 3): > 60 µM
Activity (Sindbis virus): inactive
Activity (Rift Valley fever virus): inactive
selectivity ratio [20]: 23
EC50 (Vaccinia virus): 4 µM
MCC [17]: > 100 µM

Nc1ncc(Cl)c2c1ncn2[C@@H]1C[C@H](O)[C@@H](O)[C@H]1O
Activity (Influenza A virus [1]): inactive
EC50 (Human respirovirus 3): 1.6 µM
EC50 [2]: 8 µM
Activity [3]: inactive
MCC [4]: > 200 µM
Activity (Yellow fever virus): inactive
CC50 [6]: > 311 µM
Activity (unidentified adenovirus): inactive
selectivity ratio [19]: > 77
Activity (Influenza A virus [7]): inactive
Activity (Coxsackievirus B4): inactive
selectivity ratio [8]: > 500
EC50 (Influenza B virus): 0.62 µM
Activity (Human gammaherpesvirus 4): inactive
Activity (West Nile virus): inactive
Activity [9]: inactive
Activity (Cowpox virus): inactive
Activity (Human alphaherpesvirus 1): inactive
Activity (Human alphaherpesvirus 2): inactive
Activity (Enterovirus): inactive
CC50 [12]: > 300 µM
CC50 [13]: > 300 µM
EC50 (Punta Toro virus): 24 µM
Activity (Tacaribe virus): inactive
Activity [14]: inactive
EC50 (Hepatitis B virus): > 10 µM
EC50 [15]: 1.6 µM
Activity (Feline coronavirus): inactive
CC50 [16]: 311 µM
Activity (Dengue virus): inactive
EC50 (Influenza A virus [18]): 4 µM
EC50 (Measles morbillivirus): 0.18 µM
EC50 (Human alphaherpesvirus 3): > 300 µM
Activity (Sindbis virus): inactive
Activity (Rift Valley fever virus): inactive
selectivity ratio [20]: > 1730
EC50 (Vaccinia virus): 120 µM
MCC [17]: > 100 µM

Source: ChEMBL document CHEMBL2311354, “C-3 halo and 3-methyl substituted 5'-nor-3-deazaaristeromycins: synthesis and antiviral properties” (Bioorg Med Chem, 2013)
